Measurements published in patent publication US7432253B2, “Phosphoepoxides, method for making same and uses” (Institut National de la Sante et de la Recherche Medicale, priority 1998, dated 2008).

Tests used:
mice = test: Toxicity of Epox-PP (sodium salt) in mice, intravenous injection; assay type: in vivo
Procedure: Five 30 g mice received an intravenous injection (caudal vein) of 300 μl of PBS buffer containing 1 mg of Epox-PP (sodium salt). […] Toxicity is thus less than 20% for a dose of 33.4 mg of Epox-PP (sodium salt) per kilogram of animal body weight.

Tγ9δ2 lymphocyte clone = test: Induced cytotoxicity test of a Tγ9δ2 lymphocyte clone; assay type: cell-based; conditions: for concentration at which the compound is active: stimulation of specific cytotoxic activity
Tγ9δ2 lymphocytes = test: Bioactivity (induced cytotoxicity test) after transient chemical treatment; assay type: cell-based; set-up: key: + indicates detection of activity upon Tγ9δ2 lymphocytes; − indicates that no activity could be detected; conditions: diluted 1:30 from 5 to 10 μM solutions
Procedure: The bioactivity of the compound according to the invention Epox-PP (obtained as stated in Example 1) is compared with that of a stock preparation of Tubag natural phosphoantigens obtained as described in WO 95/20673.
Bioactivity is measured by an induced cytotoxicity test as described in Example 6 using the compound to be tested diluted 1:30 from 5 to 10 μM solutions of the compounds.
Before bioactivity is measured, the compounds are subjected to a transient chemical treatment by being brought into contact with one of the following reagents: NaIO4 (5 mM); NaBH3CN (10 mM, pH 7); KMnO4 (1 mM); bromine water Br2, H2O (7 mM), followed by neutralization of the reagent.

human Tγ9δ2 lymphocytes [1] = system: human Tγ9δ2 lymphocytes
human Tγ9δ2 lymphocytes [2] = conditions: prior art prenyl pyrophosphates, best results obtained; cited from earlier work

Substance	sign of shock or pyrogenicity (mice; 1 mg i.v. (caudal vein) per 30 g mouse)	variation in the weight of the mice (mice; 1 mg i.v. per 30 g mouse, during the study)	Toxicity (mice; dose of 33.4 mg per kilogram of animal body weight, i.v.)	mice still alive after 30 days (mice; five mice, 1 mg i.v. per 30 g mouse, 30 days) [mice]	concentration at which the compound is active (Tγ9δ2 lymphocyte clone) [nM]	Bioactivity after chemical treatment: KMnO4 (1 mM) (Tγ9δ2 lymphocytes; KMnO4 1 mM)	Bioactivity after chemical treatment: NaBH3CN (10 mM pH7) (Tγ9δ2 lymphocytes; NaBH3CN 10 mM pH 7)	Bioactivity after chemical treatment: NaIO4 (5 mM) (Tγ9δ2 lymphocytes; NaIO4 5 mM)	Bioactivity after chemical treatment: Br2, H2O (7 mM) (Tγ9δ2 lymphocytes; bromine water 7 mM)	Bioactivity after chemical treatment: none (Tγ9δ2 lymphocytes; no reagent)	active concentration relative to the compound from Example 1 (Tγ9δ2 lymphocyte clone; IPP versus Epox-PP) [times higher]	minimum active concentration relative to natural phosphoantigens (human Tγ9δ2 lymphocytes [1]) [times higher]	minimum concentration at which activity could be demonstrated (human Tγ9δ2 lymphocytes [2]) [µM]
3,4-epoxy-3-methyl-1-butyl diphosphate [Epox-PP (sodium salt)]	No sign of shock or pyrogenicity	no significant variation	less than 20%	5	–	–	–	–	–	–	–	–	–
3,4-epoxy-3-methyl-1-butyl diphosphate [Epox-PP]	–	–	–	–	~20	+	+	+	+	+	–	–	–
isopentenylpyrophosphate [IPP]	–	–	–	–	~3000	–	–	–	–	–	150	~1000	≥ 3
